Test system: strains of Enterobacteriaceae producing various carbapenemases (class A, D and B; 104 strains)
Experiment: Antibiotics potentiation by Compound 27 (MIC; meropenem, doripenem, ertapenem, cefepime)
Assay type: cell-based
Conditions: + 27 = with Compound 27 at fixed 4 μg/ml

Q: For `C[C@@H](O)[C@H]1C(=O)N2C(C(=O)O)=C(S[C@@H]3CN[C@H](C(=O)N(C)C)C3)[C@H](C)[C@H]12` [M], which MIC (strain CF1012 Citrobacter freundii (KPC-2)) is on record?
A: Y (MIC of 1 μg/mL to 10 μg/mL)

Q: And the MIC (strain CF1021 Citrobacter freundii (CMY-type; VIM-1))?
A: Y (MIC of 1 μg/mL to 10 μg/mL)

Q: And the MIC (strain CF1022 Citrobacter freundii (SHV-12(2be), TEM-OSBL(2b); IMP-8))?
A: Y (MIC of 1 μg/mL to 10 μg/mL)

Q: And the MIC (strain CF1023 Citrobacter freundii (SHV-12(2be), TEM-OSBL(2b); CTX-M-3; CMY-34; NDM-1))?
A: Z (MIC of greater than 10 μg/mL)

Q: And the MIC (strain CL1080 Enterobacter cloacae (IMP-1))?
A: Y (MIC of 1 μg/mL to 10 μg/mL)

Q: And the MIC (strain EA1019 Enterobacter aerogenes (SHV-5, VIM-1))?
A: Z (MIC of greater than 10 μg/mL)

Q: What about the MIC (strain EC1007 Escherichia coli (KPC-3)) of the same compound?
A: X (MIC of less than 1 μg/mL)

Q: What about the MIC (strain EC1061 Escherichia coli (NDM-1, CMY-6)) of the same compound?
A: Z (MIC of greater than 10 μg/mL)

Q: And the MIC (strain EC1062 Escherichia coli (OXA-48, CTX-M-15))?
A: X (MIC of less than 1 μg/mL)

Q: What about the MIC (strain EC1064 Escherichia coli (NDM-1, CMY-6, CTX-M-15)) of the same compound?
A: Z (MIC of greater than 10 μg/mL)

Q: And the MIC (strain EC1065 Escherichia coli (IMP-1))?
A: Y (MIC of 1 μg/mL to 10 μg/mL)

Q: And the MIC (strain EC1068 Escherichia coli (VIM-1))?
A: Z (MIC of greater than 10 μg/mL)

Q: What about the MIC (strain EC1069 Escherichia coli (CTX-M-27; NDM-1)) of the same compound?
A: Z (MIC of greater than 10 μg/mL)

Q: What about the MIC (strain EC1070 Escherichia coli (TEM-OSBL(2b); CMY-42; NDM-5)) of the same compound?
A: Z (MIC of greater than 10 μg/mL)

Q: What about the MIC (strain EC1072 Escherichia coli (CTX-M-3; NDM-1)) of the same compound?
A: Z (MIC of greater than 10 μg/mL)

Q: What about the MIC (strain ECL1004 Enterobacter cloacae (NMC-A)) of the same compound?
A: Y (MIC of 1 μg/mL to 10 μg/mL)

Q: And the MIC (strain ECL1026 Enterobacter cloacae (KPC-2, TEM-1))?
A: Y (MIC of 1 μg/mL to 10 μg/mL)

Q: And the MIC (strain ECL1036 Enterobacter cloacae (KPC-3, TEM-1))?
A: Y (MIC of 1 μg/mL to 10 μg/mL)

Q: And the MIC (strain ECL1045 Enterobacter cloacae (VIM-1))?
A: Y (MIC of 1 μg/mL to 10 μg/mL)

Q: What about the MIC (strain ECL1055 Enterobacter cloacae (KPC-3, TEM)) of the same compound?
A: Y (MIC of 1 μg/mL to 10 μg/mL)

Q: What about the MIC (strain ECL1057 Enterobacter cloacae (NDM-1, TEM-1, CTX-M-15)) of the same compound?
A: Z (MIC of greater than 10 μg/mL)

Q: What about the MIC (strain ECL1058 Enterobacter cloacae (KPC-3, SHV-11, TEM-1)) of the same compound?
A: Z (MIC of greater than 10 μg/mL)

Q: And the MIC (strain ECL1059 Enterobacter cloacae (KPC-3, SHV-12, TEM-1))?
A: Y (MIC of 1 μg/mL to 10 μg/mL)

Q: What about the MIC (strain ECL1061 Enterobacter cloacae (KPC-3, Hyper AmpC expression)) of the same compound?
A: Z (MIC of greater than 10 μg/mL)

Q: And the MIC (strain ECL1082 Enterobacter cloacae (VIM-1))?
A: Z (MIC of greater than 10 μg/mL)

Q: What about the MIC (strain ECL1084 Enterobacter cloacae (CTX-M-15; ACT-16; NDM-1)) of the same compound?
A: Z (MIC of greater than 10 μg/mL)

Q: What about the MIC (strain ECL1085 Enterobacter cloacae (SHV-31(2be), TEM-1(2b); CTX-M-15; NDM-1)) of the same compound?
A: Z (MIC of greater than 10 μg/mL)

Q: And the MIC (strain ECL1086 Enterobacter cloacae (VIM-31, OXA-48(c)))?
A: Y (MIC of 1 μg/mL to 10 μg/mL)

Q: And the MIC (strain ECL1087 Enterobacter cloacae (VIM-1))?
A: Z (MIC of greater than 10 μg/mL)

Q: What about the MIC (strain ECL1088 Enterobacter cloacae (TEM-1(2b); CTX-M-14; ACT-type; VIM-1)) of the same compound?
A: Z (MIC of greater than 10 μg/mL)

Q: What about the MIC (strain ECL1089 Enterobacter cloacae (ACT-type; IMP-1)) of the same compound?
A: Z (MIC of greater than 10 μg/mL)

Q: What about the MIC (strain ECL1090 Enterobacter cloacae (TEM-1(2b); CTX-M-22; ACT-type; IMP-8)) of the same compound?
A: Y (MIC of 1 μg/mL to 10 μg/mL)

Q: And the MIC (strain ECL1091 Enterobacter cloacae (VIM-1))?
A: Z (MIC of greater than 10 μg/mL)

Q: And the MIC (strain ECL1092 Enterobacter cloacae (TEM-OSBL(2b); ACT-32; VIM-1))?
A: Y (MIC of 1 μg/mL to 10 μg/mL)

Q: And the MIC (strain ECL1093 Enterobacter cloacae (TEM-OSBL(2b); ACT-32; VIM-1))?
A: Y (MIC of 1 μg/mL to 10 μg/mL)

Q: What about the MIC (strain ECL1094 Enterobacter cloacae (VIM-1)) of the same compound?
A: Z (MIC of greater than 10 μg/mL)

Q: And the MIC (strain ECL1096 Enterobacter cloacae (CMY-4, VIM-4, OXA-48(c)))?
A: Y (MIC of 1 μg/mL to 10 μg/mL)

Q: And the MIC (strain ECL1097 Enterobacter cloacae (SHV-31(2be), TEM-OSBL(2b); CTX-M-15; ACT-31; NDM-1))?
A: Z (MIC of greater than 10 μg/mL)

Q: And the MIC (strain ECL1098 Enterobacter cloacae (TEM-OSBL(2b); DHA-1; ACT-16; NDM-1))?
A: Z (MIC of greater than 10 μg/mL)

Q: What about the MIC (strain KP1001 Klebsiella pneumoniae (KPC TEM SHV)) of the same compound?
A: Z (MIC of greater than 10 μg/mL)

Q: What about the MIC (strain KP1002 Klebsiella pneumoniae (KPC TEM SHV)) of the same compound?
A: Y (MIC of 1 μg/mL to 10 μg/mL)

Q: What about the MIC (strain KP1003 Klebsiella pneumoniae (KPC TEM SHV)) of the same compound?
A: Y (MIC of 1 μg/mL to 10 μg/mL)

Q: What about the MIC (strain KP1004 Klebsiella pneumoniae (KPC-2, TEM-1, SHV-11)) of the same compound?
A: Z (MIC of greater than 10 μg/mL)

Q: And the MIC (strain KP1008 Klebsiella pneumoniae (KPC-2))?
A: Y (MIC of 1 μg/mL to 10 μg/mL)

Q: What about the MIC (strain KP1014 Klebsiella pneumoniae (VIM-1, TEM, SHV)) of the same compound?
A: Y (MIC of 1 μg/mL to 10 μg/mL)

Q: What about the MIC (strain KP1054 Klebsiella pneumoniae (VIM-1, SHV-11)) of the same compound?
A: Z (MIC of greater than 10 μg/mL)

Q: And the MIC (strain KP1059 Klebsiella pneumoniae (VIM-1, SHV-11))?
A: Z (MIC of greater than 10 μg/mL)

Q: What about the MIC (strain KP1061 Klebsiella pneumoniae (KPC-3, SHV-11, TEM-1)) of the same compound?
A: Z (MIC of greater than 10 μg/mL)

Q: And the MIC (strain KP1064 Klebsiella pneumoniae (KPC-2, SHV-11, TEM-1))?
A: Z (MIC of greater than 10 μg/mL)

Q: And the MIC (strain KP1065 Klebsiella pneumoniae (VIM-1, SHV-11))?
A: Y (MIC of 1 μg/mL to 10 μg/mL)

Q: What about the MIC (strain KP1070 Klebsiella pneumoniae (KPC-2, SHV-11, TEM-1)) of the same compound?
A: Z (MIC of greater than 10 μg/mL)

Q: What about the MIC (strain KP1074 Klebsiella pneumoniae (KPC-3, SHV-11, TEM)) of the same compound?
A: Z (MIC of greater than 10 μg/mL)

— patent US10206937B2, “Boronic acid derivatives and therapeutic uses thereof” (Qpex Biopharma, Inc., priority 2014, dated 2019)
